What was measured:
[1] = tested on: spontaneously hypertensive rats; assay: Systolic blood pressure lowering in spontaneously hypertensive rats; type: in vivo, rat
Protocol: The in vivo blood pressure lowering ability of the compounds of this invention was established by measuring the systolic pressure of spontaneously hypertensive rats with a Decker Caudal Plethysmograph or similar sensor device. The compound being tested is administered to groups of four rats and their blood pressure is read prior to compound administration and at 1.5 and 4 hours after compound administration. Depending upon the behavior of the compound being tested, the schedule of blood pressure readings and route of administration is modified. Initially the compounds are administered orally but where compound solubility is a factor, the compounds may be administered parenterally (i.e. i.p., i.m., s.c., i.v., etc.) as desired. The compounds of this invention were initially administered orally at a standard testing dose of 50 mg/kg., and where appropriate, smaller doses were administered to obtain a potency profile.
(§1) The following examples illustrate the preparation of a representative number of compounds of this invention. After each example, the Ca^+2 antagonist activity of the compound is presented in terms of percent relaxation (P.R.) at the stated concentration. Similarly, the antihypertensive activity is reported in terms of millimeters mercury (mmHg) blood pressure (B.P.) reduction at the stated time post oral dosing with the reported amount of compound.

rabbit aortic strips = assay: Ca+2 antagonism: relaxation of potassium-contracted rabbit aortic strips; type: cell-based; details: Oryctolagus cuniculus, strips contracted with 100 millimoles potassium ion, read-out: percent relaxation (P.R.); for inhibition at 10 µM: 10^-5 M bath concentration; for inhibition at 1 µM: 10^-6 M bath concentration
Protocol: After a stable active tension has developed in the strip, as measured by Statham UC-2 force transducers and recorded on an eight channel Beckman Dynograph Polygraphic Recorder, an amount of the antagonist was added to the organ bath to make a 10^-5 molar concentration of antagonist. The depressant effect, expressed as percent relaxation, was taken from the mean of at least two experiments. […] A Ca^+2 antagonist producing a 20 percent relaxation of aortic tissue in this test procedure at a 10^-5 molar bath concentration of the antagonist, generally produced a significant reduction in blood pressure when a sufficient amount is given to the spontaneously hypertensive rat.
as §1

SMILES | blood pressure (B.P.) reduction ([1]; 5 mg/kg oral, at 1.5 hours) [mmHg] | blood pressure (B.P.) reduction ([1]; 5 mg/kg oral, at 4 hours) [mmHg] | blood pressure (B.P.) reduction ([1]; 10 mg/kg oral, at 1.5 hours) [mmHg] | blood pressure (B.P.) reduction ([1]; 10 mg/kg oral, at 4 hours) [mmHg] | blood pressure (B.P.) reduction ([1]; 25 mg/kg oral, at 1.5 hours) [mmHg] | blood pressure (B.P.) reduction ([1]; 25 mg/kg oral, at 4 hours) [mmHg] | blood pressure (B.P.) reduction ([1]; 50 mg/kg oral, at 1.5 hours) [mmHg] | blood pressure (B.P.) reduction ([1]; 50 mg/kg oral, at 4 hours) [mmHg] | inhibition at 10 µM (rabbit aortic strips) [%] | inhibition at 1 µM (rabbit aortic strips) [%] | blood pressure (B.P.) reduction ([1]; 2.5 mg/kg oral, at 1.5 hours) [mmHg] | blood pressure (B.P.) reduction ([1]; 2.5 mg/kg oral, at 4 hours) [mmHg]
COC(=O)C1=C(C)NC2=C(C(=O)CN(C)C2)C1c1c(F)c(F)c(F)c(F)c1F (centres unmarked) [Example 1, 1,4,5,6,7,8-Hexahydro-2,7-dimethyl-4-[2,3,4,5,6-pentafluorophenyl]-5-oxo-1,7-naphthyridine-3-carboxylic Acid Methyl Ester] | -21 | -10 | -63 | -31 | -71 | -49 | -95 | -89 | 22.9 |  |  | 
COC(=O)C1=C(C)NC2=C(C(=O)CN(Cc3ccccc3)C2)C1c1c(F)c(F)c(F)c(F)c1F (centres unmarked) [Example 2, 1,4,5,6,7,8-Hexahydro-2-methyl-5-oxo-4-(2,3,4,5,6-pentafluorophenyl)-7-(phenylmethyl)-1,7-naphthyridine-3-carboxylic Acid Methyl Ester] |  |  |  |  |  |  | -20 | -23 |  | 56 |  | 
COC(=O)C1=C(C)NC2=C(C(=O)CNC2)C1c1c(F)c(F)c(F)c(F)c1F (centres unmarked) [Example 3, 1,4,5,6,7,8-Hexahydro-2-methyl-5-oxo-4-(2,3,4,5,6-pentafluorophenyl)-1,7-naphthyridine-3-carboxylic Acid Methyl Ester] | -48 | -36 | -79 | -24 | -76 |  | -64 | -88 | 78.7 | 65.2 | -34 | -30

From patent publication US4365063A, “Antihypertensive agents” (American Home Products Corporation, priority 1981, dated 1982)
